# Source: the NIST ThermoML archive (doi:10.1021/je0256481)
# ± gives the expanded uncertainty stated by the source.
# Assay: activity coefficient (dimensionless); of the first substance listed, at infinite dilution; xn = mol fraction of the nth substance listed
# Conditions: Liquid, x1 = 0
SMILES,activity coefficient (298.15 K),activity coefficient (313.15 K),activity coefficient (323.15 K)
C=CCCCCC [1-heptene] + CCCCCCn1cc[n+](C)c1.F[P-](F)(F)(F)(F)F,15.3 ± 1.4,13.8 ± 1.3,12.4 ± 1.1
C#CCCCCC [1-heptyne] + CCCCCCn1cc[n+](C)c1.F[P-](F)(F)(F)(F)F,,4.03 ± 0.37,4.07 ± 0.37
C#CCCCC [1-hexyne] + CCCCCCn1cc[n+](C)c1.F[P-](F)(F)(F)(F)F,,2.78 ± 0.25,2.82 ± 0.26
C#CCCCCCC [1-octyne] + CCCCCCn1cc[n+](C)c1.F[P-](F)(F)(F)(F)F,,5.86 ± 0.54,5.81 ± 0.53
c1ccccc1 [benzene] + CCCCCCn1cc[n+](C)c1.F[P-](F)(F)(F)(F)F,1.03 ± 0.05,1.04 ± 0.06,1.07 ± 0.06
C1CCCCCC1 [cycloheptane] + CCCCCCn1cc[n+](C)c1.F[P-](F)(F)(F)(F)F,,14.2 ± 1.3,11.8 ± 1.1
C1CCCCC1 [cyclohexane] + CCCCCCn1cc[n+](C)c1.F[P-](F)(F)(F)(F)F,12.7 ± 1.2,10.6 ± 0.97,9.38 ± 0.86
C1CCCCCCC1 [cyclooctane] + CCCCCCn1cc[n+](C)c1.F[P-](F)(F)(F)(F)F,,18.7 ± 1.7,12.2 ± 1.1
C1CCCC1 [cyclopentane] + CCCCCCn1cc[n+](C)c1.F[P-](F)(F)(F)(F)F,8.53 ± 0.78,7.21 ± 0.66,6.08 ± 0.56
CCCCCCC [heptane] + CCCCCCn1cc[n+](C)c1.F[P-](F)(F)(F)(F)F,30.6 ± 2.8,25.7 ± 2.4,22.2 ± 2
C=CCCCC [hex-1-ene] + CCCCCCn1cc[n+](C)c1.F[P-](F)(F)(F)(F)F,10.4 ± 0.96,9.09 ± 0.83,7.88 ± 0.72
CCCCCC [hexane] + CCCCCCn1cc[n+](C)c1.F[P-](F)(F)(F)(F)F,22.5 ± 5.4,19.2 ± 4.4,15 ± 3
CO [methanol] + CCCCCCn1cc[n+](C)c1.F[P-](F)(F)(F)(F)F,1.94 ± 0.17,1.6 ± 0.13,1.44 ± 0.11
C=CCCCCCC [oct-1-ene] + CCCCCCn1cc[n+](C)c1.F[P-](F)(F)(F)(F)F,21.9 ± 2,19.5 ± 1.8,18 ± 1.7
CCCCCCCC [octane] + CCCCCCn1cc[n+](C)c1.F[P-](F)(F)(F)(F)F,44.7 ± 4.2,37.1 ± 3.5,32 ± 3
CCCCC [pentane] + CCCCCCn1cc[n+](C)c1.F[P-](F)(F)(F)(F)F,13.7 ± 2.7,12.2 ± 2.4,8.48 ± 1.4
